Source: patent publication US10010629B2, “Compositions and methods for in vivo imaging” (The Regents of the University of California, priority 2010, dated 2018)
“Also recorded” adds a separate entry of the source. Values belong to the molecule of their own block, whether it stands above or below them.

Experiments:
3T3-L1-luc adipocytes = assay: Cell-based fatty acid uptake assay (bioluminescence), adipocytes; conditions: BSA-bound, 0-100 μM (comparison at 20 μM, 30 min)
Procedure: (§1) Luciferase expressing cellular model (3T3-L1-Luc Cells): 3T3-L1 fibroblasts (ATCC) were stably transfected with the pGL4.51[luc2/CMV/Neo] vector (Promega). Clones with the highest level of luciferase expression were isolated and expanded.
Cell culture and treatment: 3T3-L1-luc fibroblasts were grown in DMEM containing 10% fetal bovine serum with 2 mM L-glutamine and 1% penicillin/streptomycin (DMEM/FBS). […] Differentiated cells were used in experiments on days 8-12 of differentiation.
(§2) Cell-based fatty acid uptake assays: 3T3-L1-luc adipocytes or fibroblasts were seeded into black-wall/clear-bottom-96-well plates (Costar) and treated with 100 μl of a fatty acid uptake buffer consisting of 0.1% BSA in Hank's balanced salt solution (HBSS) in addition to 2-100 μM of the compound. Plates were read immediately and luminescent images were acquired with a 5-minute exposure time back to back for 60 minutes. All cell-based assays utilized the same kinetic acquisition settings.

L2G85 mice [1] = assay: Uptake after intravenous injection (albumin-bound), bioluminescence imaging; conditions: i.v., bound to/mixed with albumin
Procedure: (§3) To monitor uptake of FFA-luc by internal organs, FFA-luc was bound to the physiological carrier of fatty acids in the serum, i.e. albumin. As a control, animals were injected with an albumin luciferin mix.
(§4) Animal models: Transgenic mice ubiquitously expressing luciferase under control of the actin promoter were used.
(§5) Imaging equipment and software: All luminescent/photographic images were captured with the IVIS Spectrum (Caliper Life Sciences). Total flux (photons/sec) of regions of interest were calculated with the IVIS Living Image software. CT data was acquired with the Quantum FX μCT (Caliper Life Sciences).
(§6) Intravenous injection: Restrained mice received 100 μl volume tail vein injections of 20 μM FFA-luc or FFA-S-luc (0.0014 mg) bound to 0.1% bovine serum albumin (BSA) in phosphate buffered saline (PBS). Mice were immediately anesthetized and luminescent images with a 1-minute exposure were acquired.

3T3-L1-luc fibroblasts = assay: Cell-based fatty acid uptake assay (bioluminescence), undifferentiated fibroblasts; conditions: 20 μM FFA-luc, 30 min
Procedure: as §1
Cell culture and treatment: 3T3-L1-luc fibroblasts were grown in DMEM containing 10% fetal bovine serum with 2 mM L-glutamine and 1% penicillin/streptomycin (DMEM/FBS). A cell differentiation protocol was followed as previously described (Baldini et al., Cloning of a Rab3 isotype predominantly expressed in adipocytes. Proc Natl Acad Sci USA 89, 5049 (Jun. 1, 1992); Stahl et al., Insulin causes fatty acid transport protein translocation and enhanced fatty acid uptake in adipocytes. Dev Cell 2, 477 (2002)). […]
as §2, with “All cell-based assays utilized the same kinetic acquisition settings.” left out

L2G85 mice [2] = assay: Intestinal uptake after oral gavage, bioluminescence imaging; assay type: in vivo; conditions: for bioluminescent signal in the live animal after oral gavage: luciferase-expressing mice
Procedure: To translate the imaging technique described above to in vivo systems, L2G85 mice were utilized. L2G85 mice express luciferase throughout their bodies. Initial experiments focused on detection of intestinal FFA uptake using oral gavages of the FFA-luc compound. […] This is consistent with known fatty acid uptake localization and kinetics.
Gavage of FFA-luc and FFA-S-luc: Anesthetized mice received a 50 μl volume gavage of 300 μM FFA-luc or FFA-S-luc (0.01 mg) in a vehicle of 1:1 PEG 400 and propylene glycol. Mice were awake for 5 minutes post-gavage to stimulate peristalsis before they were re-anesthetized for imaging. Mice were under constant isoflurane administration in the IVIS Spectrum In Vivo Imager and luminescent images were acquired with a 5-minute exposure back to back for 60 minutes.
CT scans: Mice received a 100 μl volume gavage of 80 mg barium sulfate. After one hour, mice received a second barium sulfate gavage, immediately followed by a 50 μl volume gavage of 300 μM FFA-luc (0.01 mg) in a vehicle of 1:1 PEG 400 and propylene glycol. Mice were placed in a Mouse Imaging Shuttle Adaptor (Caliper Life Sciences) and luminescent images were acquired with a 5-minute exposure back to back for 60 minutes. Mice were then transferred to the Quantum FX μCT for CT imaging without disruption of position. Co-registration of luminescent and CT images were performed with Living Image software.

L2G85 mice [3] = assay: BAT imaging after intraperitoneal injection; assay type: in vivo; conditions: for signal from BAT (intact and excised) after intraperitoneal injection: i.p., 0.1% BSA in PBS, 30 min
Procedure: Intraperitoneal injection: Anesthetized mice received a 100 μl volume intraperitoneal injection of 200 μM FFA-luc or FFA-S-luc (0.014 mg) bound to 0.1% BSA in PBS immediately prior to imaging. Luminescent images were acquired with a 3-minute exposure back to back for 30-minutes.
BAT imaging: Anesthetized mice received 100 μl volume intraperitoneal injection of 200 μM FFA-luc (0.014 mg) immediately prior to imaging. Luminescent images were acquired with a 3-minute exposure back to back for 30-minutes. For BAT activation imaging, mice received intraperitoneal injections of the β-adrenergic stimulator CL316,243 at 1 mg/kg 20 minutes prior to the FFA-luc injection.

L2G85 mice [4] = conditions: mouse, in vivo
Procedure: as §3, §4, §5, §6

[5] = system: FFA-luc uptake by 3T3-L1 adipocytes; assay: FFA-SS-Luc competition assay; assay type: cell-based
Procedure: FFA-SS-Luc competition assay: 3T3-L1-luc adipocytes were seeded into black-wall/clear-bottom-96-well plates (Costar) and treated with 100 μl fatty acid uptake buffer including 20 μM FFA-luc and a titration of 0-2 mM oleate or methyl-oleate immediately prior to imaging.

[6] = system: FFA-luc uptake by 3T3-L1-luc adipocytes; assay: Insulin-mediated uptake of FFA-luc; assay type: cell-based; conditions: 20 μM FFA-luc
Procedure: Insulin-mediated uptake of FFA-luc: 3T3-L1-luc adipocytes were seeded into black-wall/clear-bottom-96-well plates (Costar). One group of cells was serum starved in DMEM for 5 hours followed by the addition of […] fatty acid uptake buffer with 20 μM FFA-luc immediately prior to imaging. A second group of cells was treated with DMEM/fetal bovine serum (FBS) for 5 hours followed by the addition of 100 μl fatty acid uptake buffer with 20 μM FFA-luc and 1 ug/mL insulin immediately prior to imaging.

Molecule: O=C(O)[C@H]1CSC(c2nc3ccc(O)cc3s2)=N1 [luciferin, reference compound]
uptake by luciferase-expressing 3T3 L1 adipocytes (light signal / uptake rate) (3T3-L1-luc adipocytes): significantly lower uptake rates
bioluminescent signal in the live animal after intravenous injection (L2G85 mice [1]): very rapid, bright, and delocalized signal

signal from stomach and colon, excised GI tract after oral gavage (L2G85 mice [2]; ex vivo, stomach and colon): negative
signal from BAT (intact and excised) after intraperitoneal injection (L2G85 mice [3]): robust light signal
uptake by excised organs after tail vein injection (L2G85 mice [4]): taken up by several organs
light production of removed interscapular brown adipose tissue after injection (L2G85 mice [4]; iv): robust light production
photon emission from isolated heart after intravenous injection (L2G85 mice [4]; iv): high signal
photon emission from isolated liver after intravenous injection (L2G85 mice [4]; iv): low signal
Molecule: O=C(O)CCCCCCCCCCCCCCCSSCCCOC(=O)Oc1ccc2nc(C3=N[C@@H](C(=O)O)CS3)sc2c1 [FFA-luc, (S)-2-(6-((3-((15-carboxypentadecyl)disulfanyl)propoxy)carbonyloxy)benzo[d]thiazol-2-yl)-4,5-dihydrothiazole-4-carboxylic acid]
uptake by luciferase-expressing 3T3 L1 adipocytes (light signal / uptake rate) (3T3-L1-luc adipocytes): robust, dose-dependent signal
uptake kinetics by undifferentiated fibroblast-like 3T3 L1 cells versus adipocytes (3T3-L1-luc fibroblasts): significantly lower
signal from small intestine, excised GI tract after oral gavage (L2G85 mice [2]; ex vivo, small intestine / duodenum): robust signal; also recorded: strongest signal was generated by the proximal duodenum
bioluminescent signal in the live animal after oral gavage (L2G85 mice [2]): distinct signal emanating from an area consistent with the small intestine; also recorded: abdominal signal

Molecule: COC(=O)CCCCCCCCCCCCCCCSSCCCOC(=O)Oc1ccc2nc(C3=N[C@@H](C(=O)O)CS3)sc2c1 [Me-FFA-luc, (S)-2-(6-((3-((16-methoxy-16-oxohexadecyl)disulfanyl)propoxy)carbonyloxy)benzo[d]thiazol-2-yl)-4,5-dihydrothiazole-4-carboxylic acid]
uptake by luciferase-expressing 3T3 L1 adipocytes (light signal / uptake rate) (3T3-L1-luc adipocytes; listed as methyl ester of the FFA-luc): slower, non-saturable uptake
uptake by luciferase-expressing 3T3 L1 adipocytes (light signal / uptake rate) (3T3-L1-luc adipocytes; listed as methyl-FFA-luc): significantly lower uptake rates

bioluminescent signal in the live animal after oral gavage (L2G85 mice [2]): weak and diffuse signal
signal from BAT (intact and excised) after intraperitoneal injection (L2G85 mice [3]): little or no signal
Molecule: O=C(O)CCCCCCCCCCCCCCCSCCCOC(=O)Oc1ccc2nc(C3=N[C@@H](C(=O)O)CS3)sc2c1 [FFA-S-luc, (S)-2-(6-((3-(15-carboxypentadecylthio)propoxy)carbonyloxy)benzo[d]thiazol-2-yl)-4,5-dihydrothiazole-4-carboxylic acid]

Molecule: CCCCCCCC/C=C\CCCCCCCC(=O)O [oleate]
IC50 ([5]; Mus musculus, 3T3-L1, read-out: IC50, inhibition of uptake of FFA-luc by 3T3-L1 adipocytes): 17 µM

Molecule: C[C@H](Cc1ccc2c(c1)OC(C(=O)[O-])(C(=O)[O-])O2)NC[C@H](O)c1cccc(Cl)c1.[Na+].[Na+] [CL316,243, reference compound]
effect on compound 1 uptake by BAT (L2G85 mice [3]; CL316,243 1 mg/kg i.p.): highly reproducible and significant increase

Molecule: CCCCCCCC/C=C\CCCCCCCC(=O)OC [methyl-oleate]
competition with FFA-luc uptake by adipocytes ([5]; 20 μM FFA-luc, excess competitor (0-2 mM titration)): did not compete and not

Molecule: insulin
effect on FFA-luc uptake by adipocytes [6]: stimulatory effect
